One may read the Ki as the equilibrium dissociation constant of an inhibitor or competing ligand from its target.

Each structure is given as a SMILES string.

In this assay the target is NR2B-subtype NMDA receptors (Rattus norvegicus (Rat), UniProt P35439+Q00960). Description: Radioligand binding assay (3H Ro 25-6981 competition, forebrain membranes). The conditions noted are these: 3H Ro 25-6981 (4 nM), read-out: NR2B Binding Ki. Here is the method: Radioligand Binding Assay. […] Buchy D; Klingelschmidt A; Messer J; Bleuel Z; Kemp J A; Richards J G. […] Thawed brains were homogenized using a Dounce homogenizer and centrifuged at 48000×g for 20 min. The pellet was resuspended in cold buffer and homogenized again using a Dounce homogenizer. […] After incubation for 1 hr at room temperature, the membrane bound radioligand was harvested on to GF/B filter plates (treated with 0.5% PEI for 1 hr at room temperature). The filter plates were dried at 50° C. for 20 mins, incubated with microscint 20 for 10 minutes and finally, the counts were read on TopCount (Perkin Elmer). […] CPM values were converted to % inhibition and the concentration response curves were plotted using custom made software. Each experiment was repeated at least twice to obtain the final binding Ki values for experimental compounds.
Chain of NR2B-subtype NMDA receptors (Q00960 27-1482, other chains not shown): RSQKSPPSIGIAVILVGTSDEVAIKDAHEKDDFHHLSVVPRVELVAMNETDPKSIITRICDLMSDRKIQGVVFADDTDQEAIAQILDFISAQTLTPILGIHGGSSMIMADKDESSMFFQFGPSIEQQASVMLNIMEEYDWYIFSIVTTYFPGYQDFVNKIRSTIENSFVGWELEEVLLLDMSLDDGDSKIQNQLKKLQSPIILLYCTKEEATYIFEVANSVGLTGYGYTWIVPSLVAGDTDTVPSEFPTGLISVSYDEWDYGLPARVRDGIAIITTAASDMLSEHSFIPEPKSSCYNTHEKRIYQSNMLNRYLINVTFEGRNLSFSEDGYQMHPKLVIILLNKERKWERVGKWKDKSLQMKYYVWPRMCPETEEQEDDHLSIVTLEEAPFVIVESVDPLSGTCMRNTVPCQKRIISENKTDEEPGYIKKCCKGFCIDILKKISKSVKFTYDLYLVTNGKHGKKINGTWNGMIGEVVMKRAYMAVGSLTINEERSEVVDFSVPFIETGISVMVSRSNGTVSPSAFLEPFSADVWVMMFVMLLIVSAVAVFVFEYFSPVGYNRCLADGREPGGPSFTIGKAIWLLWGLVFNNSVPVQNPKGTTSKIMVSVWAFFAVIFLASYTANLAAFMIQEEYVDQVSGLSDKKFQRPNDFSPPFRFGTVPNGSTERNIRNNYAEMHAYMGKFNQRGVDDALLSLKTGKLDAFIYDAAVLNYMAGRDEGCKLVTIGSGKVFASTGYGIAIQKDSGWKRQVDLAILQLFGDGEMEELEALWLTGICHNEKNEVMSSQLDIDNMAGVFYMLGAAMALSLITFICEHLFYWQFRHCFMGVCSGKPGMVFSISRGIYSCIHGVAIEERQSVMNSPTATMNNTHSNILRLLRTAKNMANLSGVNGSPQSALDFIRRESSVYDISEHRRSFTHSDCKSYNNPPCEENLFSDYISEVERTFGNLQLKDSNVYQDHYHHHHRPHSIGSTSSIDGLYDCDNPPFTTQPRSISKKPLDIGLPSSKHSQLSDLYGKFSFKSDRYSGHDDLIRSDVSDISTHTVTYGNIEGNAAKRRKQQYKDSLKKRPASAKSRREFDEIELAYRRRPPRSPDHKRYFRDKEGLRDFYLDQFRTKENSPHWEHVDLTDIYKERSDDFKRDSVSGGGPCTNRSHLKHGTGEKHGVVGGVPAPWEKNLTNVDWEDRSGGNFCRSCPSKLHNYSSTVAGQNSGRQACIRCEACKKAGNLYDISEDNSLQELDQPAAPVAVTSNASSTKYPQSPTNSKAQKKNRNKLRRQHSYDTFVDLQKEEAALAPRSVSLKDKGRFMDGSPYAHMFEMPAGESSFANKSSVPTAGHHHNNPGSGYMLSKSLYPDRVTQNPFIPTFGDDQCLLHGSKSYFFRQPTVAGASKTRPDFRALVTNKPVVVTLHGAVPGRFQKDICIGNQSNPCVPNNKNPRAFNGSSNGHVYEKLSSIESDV
On to `O=C1C(N2CCC(c3ccc(O)cc3)C(F)(F)C2)CCN1Cc1ccccc1` (single isomer, unassigned) [Example 91, P-2, 1-Benzyl-3-(3,3-difluoro-4-(4-hydroxyphenyl)piperidin-1-yl)pyrrolidin-2-one], for which the Ki was 14 nM.

Regarding `O=C1[C@H](N2CCC(c3ccc(O)cc3)CC2)CCN1Cc1ccc(O)cc1` [Example 25b, (R)-1-(4-Hydroxybenzyl)-3-(4-(4-hydroxyphenyl)piperidin-1-yl)pyrrolidin-2-one], the Ki is 5.3 nM.

Take `O=C1[C@@H](N2CC[C@@H](c3ccc(O)cc3)[C@H](F)C2)CCN1Cc1ccccc1` [Example 57, (S)-1-Benzyl-3-((3S,4S)-3-fluoro-4-(4-hydroxyphenyl)piperidin-1-yl)pyrrolidin-2-one]: the Ki worked out at 490 nM.

Take `C[C@@H](c1ccc(F)cc1)N1CCC(N2CCC(c3ccc(O)cc3)C(F)(F)C2)C1=O` (single isomer, unassigned) [Example 56, P-3]: the Ki is no less than 5000 nM.

Regarding `O=C1[C@H](N2CC[C@H](c3ccc(O)cc3)[C@@H](F)C2)CCN1Cc1ccc(C(F)(F)F)cc1` [Example 88, (R)-3-((3R,4R)-3-Fluoro-4-(4-hydroxyphenyl)piperidin-1-yl)-1-(4-(trifluoromethyl)benzyl)-pyrrolidin-2-one], the Ki worked out at 5.3 nM.

Turning to `C[C@@H](c1ccc(F)cc1)N1CCC(N2CCC(c3ccc(O)cc3)C(F)(F)C2)C1=O` (single isomer, unassigned) [Example 56, P-1], the Ki was no less than 5000 nM.

With `O=C1[C@@H](N2CCC(c3ccc(O)cc3)C(F)(F)C2)CCN1c1ccc(OC(F)F)c(Cl)c1` (stereo partly drawn) [Example 101, P-1, (3S)-1-(3-Chloro-4-(difluoromethoxy)phenyl)-3-(3,3-difluoro-4-(4-hydroxyphenyl)-piperidin-1-yl)pyrrolidin-2-one], the inhibition constant Ki came to 13 nM.

`O=C1[C@H](N2CC[C@H](c3ccc(O)cc3)[C@@H](F)C2)CCN1Cc1ccccc1` [Example 75, (R)-1-Benzyl-3-((3R,4R)-3-fluoro-4-(4-hydroxyphenyl)-piperidin-1-yl)pyrrolidin-2-one]: the inhibition constant (Ki) came out at 8 nM.

Take `Cc1ccc(CN2CCC(N3CCCC(c4ccc(O)cc4)CC3)C2=O)cc1` (stereo not drawn) [Example 36, 3-(4-(4-Hydroxyphenyl)azepan-1-yl)-1-(4-methylbenzyl)-pyrrolidin-2-one]: the Ki was determined as 34 nM.

Turning to `O=C1[C@@H](N2CC[C@H](c3ccc(O)cc3)[C@@H](F)C2)CCN1Cc1ccccc1` [Example 74, (S)-1-Benzyl-3-((3R,4R)-3-fluoro-4-(4-hydroxyphenyl)piperidin-1-yl)pyrrolidin-2-one], the inhibition constant (Ki) was found to be 680 nM.

Take `O=C1C(N2CCC(c3ccc(O)cc3)C(F)(F)C2)CCN1Cc1ccc(C(F)(F)F)cc1` (stereo in doubt) [Example 99, P-2, (3S)-3-(3,3-Difluoro-4-(4-hydroxyphenyl)piperidin-1-yl)-1-(4-(trifluoromethyl)benzyl)-pyrrolidin-2-one]: the inhibition constant Ki amounted to 22 nM.

On to `Cc1ccc(CN2CC[C@@H](N3CC(c4ccc(O)cc4)C3)C2=O)cc1F` [Example 21a, (R)-1-(3-Fluoro-4-methylbenzyl)-3-(3-(4-hydroxyphenyl)azetidin-1-yl)pyrrolidin-2-one], for which the inhibition constant (Ki) was determined as 37 nM.

For `O=C1C(N2CC[C@@H](c3ccc(O)cc3)[C@H](F)C2)CCN1Cc1ccc(Cl)c(Cl)c1` (stereo partly drawn) [Example 70, 1-(3,4-Dichlorobenzyl)-3-((3S,4S)-3-fluoro-4-(4-hydroxyphenyl)piperidin-1-yl)pyrrolidin-2-one], the inhibition constant Ki worked out at 180 nM.

Take `Cc1ccc(CN2CC[C@H](N3CC[C@@H](c4ccc(O)c(F)c4)[C@H](F)C3)C2=O)cc1F` [Example 45, P-1, (S)-3-((3S,4S)-3-fluoro-4-(3-fluoro-4-hydroxyphenyl)piperidin-1-yl)-1-(3-fluoro-4-methylbenzyl)pyrrolidin-2-one]: the Ki worked out at 260 nM.

Take `O=C1[C@@H](N2CC[C@H](c3ccc(O)cc3)[C@@H](F)C2)CCN1Cc1ccc(F)cc1` [Example 48, P-2]: the Ki came out at 1700 nM.

On to `O=C1C(N2CCC(c3ccc(O)cc3)C(F)(F)C2)CCN1Cc1ccc(F)c(Cl)c1` (stereo not drawn) [Example 100, 1-(3-Chloro-4-fluorobenzyl)-3-(3,3-difluoro-4-(4-hydroxyphenyl)piperidin-1-yl)pyrrolidin-2-one], for which the inhibition constant Ki was 570 nM.

For `O=C1[C@H](N2CCC(c3ccc(O)cc3)C(F)(F)C2)CCN1Cc1ccc(Cl)cc1` (stereo partly drawn) [Example 106, P-2, (3R)-1-(4-Chlorobenzyl)-3-(3,3-difluoro-4-(4-hydroxyphenyl)piperidin-1-yl)pyrrolidin-2-one], the inhibition constant (Ki) was determined as 4.6 nM.

Take `Cc1ccc(CN2CC[C@H](N3CC(c4ccc(O)cc4)C3)C2=O)cc1` [Example 28a, (S)-3-(3-(4-Hydroxyphenyl)azetidin-1-yl)-1-(4-methylbenzyl)pyrrolidin-2-one]: the Ki is 420 nM.

On to `O=C1[C@@H](N2CCC(c3ccc(O)cc3)CC2)CCN1Cc1ccc(F)cc1` [Example 2a, (S)-1-(4-Fluorobenzyl)-3-(4-(4-hydroxyphenyl)-piperidin-1-yl)pyrrolidin-2-one], for which the Ki was 740 nM.

As to `O=C1[C@H](N2CC[C@@H](c3ccc(O)c(F)c3)[C@H](F)C2)CCN1Cc1ccc(Cl)cc1` [Example 116, (R)-1-(4-chlorobenzyl)-3-((3S,4S)-3-fluoro-4-(3-fluoro-4-hydroxyphenyl)piperidin-1-yl)pyrrolidin-2-one], the inhibition constant Ki worked out at 2 nM.

With `O=C1[C@H](N2CCC(c3ccc(O)cc3)CC2)CCN1Cc1ccc(F)c(F)c1` [Example 6b, (R)-1-(3,4-Difluorobenzyl)-3-(4-(4-hydroxyphenyl)piperidin-1-yl)pyrrolidin-2-one], the inhibition constant (Ki) is 4.7 nM.

Consider `Cc1cccc(CN2CCC(N3CCC(c4ccc(O)cc4)C(F)(F)C3)C2=O)c1` (stereo not drawn) [Example 93, 3-(3,3-Difluoro-4-(4-hydroxyphenyl)piperidin-1-yl)-1-(3-methylbenzyl)pyrrolidin-2-one], for which the inhibitory constant (Ki) turned out to be 67 nM.

Consider `O=C1[C@@H](N2CCC(c3ccc(O)cc3)CC2)CCN1Cc1ccc(F)c(F)c1` [Example 6a, (S)-1-(3,4-Difluorobenzyl)-3-(4-(4-hydroxyphenyl)piperidin-1-yl)pyrrolidin-2-one], for which the Ki is 850 nM.

With `O=C1C(N2CCC(c3ccc(O)cc3)C(O)C2)CCN1Cc1ccc(F)cc1` (stereo not drawn) [Example 8, 1-(4-Fluorobenzyl)-3-(3-hydroxy-4-(4-hydroxyphenyl)piperidin-1-yl)pyrrolidin-2-one], the Ki is 420 nM.

Turning to `O=C1[C@H](N2CCC(c3ccc(O)cc3)CC2)CCN1Cc1ccc(F)cc1` [Example 2b, (R)-1-(4-Fluorobenzyl)-3-(4-(4-hydroxyphenyl)piperidin-1-yl)pyrrolidin-2-one], the Ki worked out at 1.4 nM.

For `O=C1[C@@H](N2CC[C@@H](c3ccc(O)cc3)[C@H](F)C2)CCN1Cc1ccc(C(F)F)cc1` [Example 114, P-2, (S)-1-(4-(difluoromethyl)benzyl)-3-((3S,4S)-3-fluoro-4-(4-hydroxyphenyl)piperidin-1-yl)pyrrolidin-2-one], the Ki was determined as 180 nM.

For `O=C1C(N2CC[C@H](c3ccc(O)cc3)[C@@H](F)C2)CCN1Cc1ccc(OC(F)F)cc1` (stereo partly drawn) [Example 78, 1-(4-(Difluoromethoxy)benzyl)-3-((3R,4R)-3-fluoro-4-(4-hydroxyphenyl)piperidin-1-yl)pyrrolidin-2-one], the inhibition constant (Ki) came out at 190 nM.

`O=C1[C@@H](N2CC[C@H](c3ccc(O)cc3)[C@@H](F)C2)CCN1Cc1ccc(Cl)c(F)c1` [Example 82, (S)-1-(4-Chloro-3-fluorobenzyl)-3-((3R,4R)-3-fluoro-4-(4-hydroxyphenyl)piperidin-1-yl)pyrrolidin-2-one]: the inhibitory constant (Ki) is 860 nM.

Consider `O=C1[C@@H](N2CCC(c3ccc(O)cc3)CC2)CCN1Cc1ccc(O)cc1` [Example 25a, (S)-1-(4-Hydroxybenzyl)-3-(4-(4-hydroxyphenyl)piperidin-1-yl)pyrrolidin-2-one], for which the Ki is 1200 nM.

In the case of `Cc1ccccc1CN1CCC(N2CCC(c3ccc(O)cc3)C(F)(F)C2)C1=O` (stereo not drawn) [Example 92, 3-(3,3-Difluoro-4-(4-hydroxyphenyl)piperidin-1-yl)-1-(2-methylbenzyl)pyrrolidin-2-one], the inhibitory constant (Ki) was 59 nM.

On to `Cc1ccc(CN2CC[C@@H](N3CC[C@@H](c4ccc(O)c(F)c4)[C@H](F)C3)C2=O)cc1F` [Example 45, P-2, (R)-3-((3S,4S)-3-fluoro-4-(3-fluoro-4-hydroxyphenyl)piperidin-1-yl)-1-(3-fluoro-4-methylbenzyl)pyrrolidin-2-one], for which the Ki came out at 3.1 nM.

Take `Cc1ccc(CN2CCC(N3CCCC(c4ccc(O)cc4)C3)C2=O)cc1` (stereo not drawn) [Example 3, 1-(4-Methylbenzyl)-3-(3-(4-hydroxyphenyl)piperidin-1-yl)pyrrolidin-2-one]: the Ki came out at 1320 nM.

Take `Cc1ccc(CN2CC[C@@H](N3CC(c4ccc(O)cc4)C3)C2=O)cc1` [Example 28b, (R)-3-(3-(4-Hydroxyphenyl)azetidin-1-yl)-1-(4-methylbenzyl)-pyrrolidin-2-one]: the inhibition constant Ki was determined as 10 nM.

With `O=C1[C@@H](N2CCC(c3ccc(O)cc3)C(F)(F)C2)CCN1Cc1ccc(F)c(F)c1` (single isomer, unassigned) [Example 108, P-1], the Ki was determined as 1200 nM.

For `O=C1[C@H](N2CCC(c3ccc(O)cc3)CC2)CCN1Cc1ccc(O)c(O)c1` [Example 43, (R)-1-(3,4-Dihydroxybenzyl)-3-(4-(4-hydroxyphenyl)piperidin-1-yl)pyrrolidin-2-one], the Ki was 150 nM.

On to `Cc1ccc(CN2CC[C@H](N3CC[C@H](c4ccc(O)c(F)c4)[C@@H](F)C3)C2=O)cc1F` [Example 45, P-3, (S)-3-((3R,4R)-3-Fluoro-4-(3-fluoro-4-hydroxyphenyl)piperidin-1-yl)-1-(3-fluoro-4-methylbenzyl)pyrrolidin-2-one], for which the inhibition constant (Ki) came to 380 nM.

(Values after patent publication US9221796B2, “Selective NR2B antagonists” (BRISTOL-MYERS SQUIBB COMPANY, priority 2014, dated 2015).)
